Test in all cases: NCI-60 cell line screen, 48 h
For test [1], the system named is SNB-75.
Test [2] has as its system K562.
The subject of test [3] is MDA-MB-435.
Test [4] relates to KM12.
Test [5] has as its system NCI-H23.
For test [6], the system named is MCF7.
The subject of test [7] is OVCAR-8.
Test [8] has as its system 786-0.
Test [9] has as its system RXF 393.
The test system of test [10] is HOP-62.
The subject of test [11] is SK-OV-3.
Test [12] deals with HCT-15.
The subject of test [13] is MOLT-4.
The subject of test [14] is NCI-H460.
The test system of test [15] is M14.
In test [16] the test system is NCI-H522.
In test [17] the test system is OVCAR-5.
Test [18] concerns LOX IMVI.
The test system of test [19] is A498.
The test system of test [20] is HL-60.

These results are taken from ChEMBL document CHEMBL1201862, “PubChem BioAssay data set” (2004).

The structures appear in SMILES notation.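 All cell lines were grown in 96-well plates and treated with compound for 48 hours. GI50 = concentration required for 50% inhibition of growth.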 Calls of active or inactive are those of the source. Cut-off read from the data, not from the text of the source: active = GI50 up to about 1.1 µM and inactive = higher.

`NC(CCC(=O)NC(CSC(=O)N(O)c1ccc(Cl)cc1)C(=O)NCC(=O)O)C(=O)O` (configuration not stated): the GI50 in [1], in test [2], in test [3], in test [4], in test [5] and in [6] was > 0.5 µM (active) each time. For the same compound, the GI50 in test [7] was > 0.5 µM (active); in test [8], > 0.5 µM (active); in test [9], > 0.5 µM (active); in test [10] it was > 0.5 µM (active); in [11], > 0.5 µM (active); in test [12], more than 0.5 µM. The GI50 in [13], in [14], in [15], in test [16] and in [17] was > 0.5 µM (active) in each case.
Turning to `Cc1ccc(/N=N/c2c(O)ccc3ccccc23)c(C)c1`, the GI50 in [1], in [2], in test [3], in [4], in test [18] and in test [5] was > 100 µM (inactive) each time. Also, the GI50 is > 100 µM (inactive) in test [7]; > 100 µM (inactive) in [8]; > 100 µM (inactive) in [9]; > 100 µM (inactive) in [10]; > 100 µM (inactive) in test [11]; more than 100 µM in test [12]. The GI50 in test [13], in test [19], in test [15] and in [17] was > 100 µM (inactive) throughout.
In the case of `COc1cc2c3c(n(C)c(=O)c2cc1OC)-c1cc2c(cc1/C3=C\CCCCCBr)OCO2`, the GI50 was 12.1 µM (inactive) in [1]; 6.3 µM (inactive) in test [2]; 31.9 µM (inactive) in [4]; 3.01 µM (inactive) in test [18]; 10.6 µM (inactive) in test [5]; 3.5 µM (inactive) in test [6]. In addition, the GI50 in test [7] is 9.53 µM (inactive); in test [8] it was 5.77 µM (inactive); in [11] it was 7.91 µM (inactive); in test [12], 21.3 µM; in test [20], 4.02 µM (inactive); in test [13], 1.45 µM (inactive). In addition, the GI50 in test [19] is 14.5 µM (inactive); in test [14] it was 5.83 µM (inactive); in test [16], 3.73 µM (inactive); in [17], 67.9 µM (inactive).
For `Cc1cc(Cl)ccc1NC(=O)C(=O)Cc1ccc([N+](=O)[O-])c([N+](=O)[O-])c1CC(=O)C(=O)Nc1ccc(Cl)cc1C`, the GI50 in [1], in test [2], in [4], in test [18], in [5] and in test [7] was > 100 µM (inactive) each time. Besides, the GI50 in test [8] was > 100 µM (inactive); in [9], > 100 µM (inactive); in test [10], > 100 µM (inactive); in test [11], > 100 µM (inactive); in test [12], more than 100 µM; in test [20] it was > 100 µM (inactive). Also, the GI50 in test [13] is > 100 µM (inactive); in test [19], > 100 µM (inactive); in test [14], > 100 µM (inactive); in test [15] it was > 100 µM (inactive); in test [16], 99.1 µM (inactive); in [17], > 100 µM (inactive).
Consider `Cc1cn(C(Cc2ccccc2)OCCO)c(=O)[nH]c1=O` (configuration not stated), for which the GI50 in test [1], in test [2], in test [3], in test [4], in [18] and in test [5] was > 100 µM (inactive) in each case. The GI50 was > 100 µM (inactive) in test [6]; > 100 µM (inactive) in [7]; > 100 µM (inactive) in test [8]; > 100 µM (inactive) in test [9]; > 100 µM (inactive) in test [10]; more than 100 µM in [12]. The GI50 in test [13], in test [19], in test [14], in test [15] and in [17] was > 100 µM (inactive) each time.
Consider `CCCCCCCCCCCCC(=O)OC(c1cnco1)c1nc(C(O)CC(O)C(O)C(C)O)co1` (configuration not stated), for which the GI50 was 0.581 µM (active) in test [1]; 0.21 µM (active) in test [2]; 0.766 µM (active) in test [4]; 0.144 µM (active) in [18]; 0.336 µM (active) in test [5]; 0.454 µM (active) in [6]. Also, the GI50 in test [7] is 0.299 µM (active); in [8], 0.217 µM (active); in test [9] it was 1.38 µM (inactive); in [10] it was 2.65 µM (inactive); in test [11], 3.94 µM (inactive); in test [12], 9.44 µM. In addition, the GI50 in [20] is 0.849 µM (active); in test [13], 0.144 µM (active); in test [19] it was 20.9 µM (inactive); in test [14], < 0.039 µM (active); in test [15], 0.491 µM (active); in test [16] it was 0.787 µM (active). For the same compound, the GI50 in test [17] is 11.6 µM (inactive).
Consider `Cc1ccc(NC(=O)c2cc3ccccc3c(/N=N\c3ccccc3O)c2O)c(C)c1`, for which the GI50 in [1] is 0.053 µM (active); in test [2] it was 3.09 µM (inactive); in [4], 1.45 µM (inactive); in [6], 2.16 µM (inactive); in test [7], 0.859 µM (active); in [8] it was 1.32 µM (inactive). In addition, the GI50 was 3.67 µM (inactive) in [9]; 1.03 µM (active) in [10]; 1.86 µM (inactive) in [11]; 0.614 µM in test [12]; 1.14 µM (inactive) in test [20]; 1.25 µM (inactive) in test [13]. In addition, the GI50 was 0.44 µM (active) in [14], 0.839 µM (active) in test [15], 1.01 µM (active) in test [16] and 3.1 µM (inactive) in test [17].
For `C=CC[P@]1(=O)O[C@H](c2ccccc2)C(C)N1C(C)C` (some centres not stated), the GI50 in test [1], in test [2], in [4], in test [18], in test [5] and in test [7] was > 100 µM (inactive) in each case. The GI50 is > 100 µM (inactive) in [8]; > 100 µM (inactive) in test [9]; > 100 µM (inactive) in test [10]; > 100 µM (inactive) in test [11]; more than 100 µM in [12]; > 100 µM (inactive) in test [20]. Further, the GI50 in test [13], in [19], in test [14], in test [15], in test [16] and in test [17] was > 100 µM (inactive) throughout.
